# According to patent US20100279990A1, “ANTIPROLIFERATIVE COMPOUNDS, COMPOSITIONS AND METHODS OF USE” (RAMOT AT TEL-AVIV UNIVERSITY LTD., priority 2006, published 2010):
# Legend:
# OVXF OVCAR3 = test: Monolayer Assay, PI: OVXF OVCAR3 (Ovarian Cancer); assay type: cell-based, human
# From the text: (§1) This example illustrates cell proliferation data in the form of IC50, IC70 and IC90 values obtained by exposure of human cancer cell-lines to compound (Ia). […].
# [1] = test system: LS1034 human colon MDR carcinoma cells; test: Viability of LS1034 human colon MDR carcinoma cells (FIG. 7B); assay type: cell-based
# From the text: This example illustrates cell viability obtained by separately administering different concentrations of compound (Ia), sertraline, doxorubicin, cisplatin, fluorouracil (5-FU), methotrexate (MTX), and vincristin to LS1034 human colon MDR carcinoma cells. The results are depicted in FIG. 7B.
# [2] = test system: human keratinocytes (HaCat cells); test: Viability of human keratinocytes (HaCat cells), neutral red staining; assay type: cell-based; conditions: 24 hr, read-out: IC50, cell viability
# [3] = test system: Con-A activated naive mouse splenocytes; test: Con-A-induced mouse splenocyte proliferation, alamar blue staining; assay type: cell-based; conditions: Splenocyte, 48 hr, alamar blue, read-out: IC50, inhibition in cell viability
# From the text: This example illustrates cell viability data obtained by separately administering different concentrations of compound (Ia), paroxetine, citalopram, and ecitalopram to Con-A activated naive mouse splenocytes. FIG. 3A depicts the comparative effect of compound (Ia), paroxetine, citalopram and ecitalopram on Con-A-induced mouse splenocyte proliferation using alamar blue staining after 48 hr. Each point represents the mean+/−SE of 5 determinations.
# human tumor cell lines = test: In vitro antitumor activity in panel of 37 human tumor cell lines (Monolayer Assay, PI), summary; assay type: cell-based
# BXF 1218L = test: Monolayer Assay, PI: BXF 1218L (Bladder); assay type: cell-based, human
# From the text: as §1
# RXF 486L = test: Monolayer Assay, PI: RXF 486L (Renal); assay type: cell-based, human
# From the text: as §1
# [4] = test system: c-jun and p-c-jun expression in HaCat cells; test: Western blot of c-jun and p-c-jun expression in HaCat cells; assay type: cell-based, human; conditions: 15 μM, 1 hr
# From the text: For each sample 2×10^7 cells were used. The cells were lysed, and equal amounts of protein was fractionated on polyacrylamide gel and then transferred to PVDF membrane. The amount of the protein was detected by immuno-blotting with monoclonal anti-c-Jun or p-c-Jun antibodies (Cayman, Ann Arbor, Mich., USA). A second antibody conjugated to horseradish peroxidase was used and visualized with chemiluminescent Kit (Pierce, Rockford, Ill., USA) on film. […] Activation of the […] pathway produces p-c-Jun as a major end, while initiating apoptosis in certain cell-lines.
# [5] = test system: resistant colon carcinoma LS1034 cell-line; test: Viability of resistant colon carcinoma LS1034 cell-line (FIG. 7A); assay type: cell-based; conditions: LS-1034, read-out: IC50, inhibition of cell viability
# From the text: This example illustrates cell viability data obtained by separately administering different concentrations of compound (Ia), sertraline, paroxetine, and doxorubicin to a […] resistant colon carcinoma LS1034 cell-line. The results are depicted in FIG. 7A.
# LXF H460 = test: Monolayer Assay, PI: LXF H460 (Lung); assay type: cell-based, human
# From the text: as §1
# CXF HCT116 = test: Monolayer Assay, PI: CXF HCT116 (Colorectal); assay type: cell-based, human
# From the text: as §1
# MEXF 394NL = test: Monolayer Assay, PI: MEXF 394NL (Melanoma); assay type: cell-based, human
# From the text: as §1
# [6] = test system: human colon carcinoma cells (HT29); test: cells
# CNXF SF268 = test: Monolayer Assay, PI: CNXF SF268; assay type: cell-based, human
# From the text: as §1
# LXF 529L = test: Monolayer Assay, PI: LXF 529L (Lung); assay type: cell-based, human
# From the text: as §1
# [7] = mean over human cancer cell-lines
smiles,measurement,setting,value
"CN[C@H]1CC[C@@H](c2ccc(Cl)c(Cl)c2)c2ccc(C#CCCCO)cc21 [compound (Ia), (1S-cis)-4-(3,4-dichlorophenyl)-7-(5-hydroxy-1-pentyn-1-yl)-1,2,3,4-tetrahydro-N-methyl-1-naphthalenamine hydroiodide]",Test/Control (%),OVXF OVCAR3; 2.3 μg/ml,103%
same,Test/Control activity class,OVXF OVCAR3; 2.3 μg/ml,− (− (T/C = 50))
same,Test/Control (%),OVXF OVCAR3; 7.5 μg/ml,78%
same,Test/Control activity class,OVXF OVCAR3; 7.5 μg/ml,− (− (T/C = 50))
same,Test/Control (%),OVXF OVCAR3; 23. μg/ml,4%
same,Test/Control activity class,OVXF OVCAR3; 23. μg/ml,+++ (+++ (T/C < 10))
same,Test/Control (%),OVXF OVCAR3; 75. μg/ml,5%
same,Test/Control activity class,OVXF OVCAR3; 75. μg/ml,+++ (+++ (T/C < 10))
same,Test/Control (%),OVXF OVCAR3; .75 μg/ml,109%
same,Test/Control activity class,OVXF OVCAR3; .75 μg/ml,− (− (T/C = 50))
same,effect on resistant cancer cells,[1],has the ability to suppress resistant cancer cells
same,IC50,[2],18.5 µM
same,IC50,[3],3.9 µM
same,active*/total cell lines,human tumor cell lines; 2.3 μg/ml,0/37
same,"active*/total cell lines, percent",human tumor cell lines; 2.3 μg/ml,0%
same,active*/total cell lines,human tumor cell lines; 7.5 μg/ml,26/37
same,"active*/total cell lines, percent","human tumor cell lines; 7.5 μg/ml (text: concentration of 7.5), hydroiodide",70%
same,active*/total cell lines,human tumor cell lines; 23. μg/ml,37/37
same,"active*/total cell lines, percent",human tumor cell lines; 23. μg/ml,100%
same,active*/total cell lines,human tumor cell lines; 75. μg/ml,37/37
same,"active*/total cell lines, percent",human tumor cell lines; 75. μg/ml,100%
same,active*/total cell lines,human tumor cell lines; .75 μg/ml,0/37
same,"active*/total cell lines, percent",human tumor cell lines; .75 μg/ml,0%
same,IC50,human tumor cell lines; [7],4.9 µM
same,mean IC70,human tumor cell lines; [7],6.9 µM
same,Test/Control (%),BXF 1218L; 2.3 μg/ml,97%
same,Test/Control activity class,BXF 1218L; 2.3 μg/ml,− (− (T/C = 50))
same,Test/Control (%),BXF 1218L; 7.5 μg/ml,92%
same,Test/Control activity class,BXF 1218L; 7.5 μg/ml,− (− (T/C = 50))
same,Test/Control (%),BXF 1218L; 23. μg/ml,4%
same,Test/Control activity class,BXF 1218L; 23. μg/ml,+++ (+++ (T/C < 10))
same,Test/Control (%),BXF 1218L; 75. μg/ml,5%
same,Test/Control activity class,BXF 1218L; 75. μg/ml,+++ (+++ (T/C < 10))
same,Test/Control (%),BXF 1218L; .75 μg/ml,101%
same,Test/Control activity class,BXF 1218L; .75 μg/ml,− (− (T/C = 50))
same,Test/Control (%),RXF 486L; 2.3 μg/ml,103%
same,Test/Control activity class,RXF 486L; 2.3 μg/ml,− (− (T/C = 50))
same,Test/Control (%),RXF 486L; 7.5 μg/ml,81%
same,Test/Control activity class,RXF 486L; 7.5 μg/ml,− (− (T/C = 50))
same,Test/Control (%),RXF 486L; 23. μg/ml,9%
same,Test/Control activity class,RXF 486L; 23. μg/ml,+++ (+++ (T/C < 10))
same,Test/Control (%),RXF 486L; 75. μg/ml,5%
same,Test/Control activity class,RXF 486L; 75. μg/ml,+++ (+++ (T/C < 10))
same,Test/Control (%),RXF 486L; .75 μg/ml,102%
same,Test/Control activity class,RXF 486L; .75 μg/ml,− (− (T/C = 50))
same,effect on c-Jun / p-c-Jun (MAPK pathway),[4],activation of the c-Jun-N-terminal kinase (JNK) pathway
same,IC50,[5],11.3 µM
same,Test/Control (%),LXF H460; 2.3 μg/ml,95%
same,Test/Control activity class,LXF H460; 2.3 μg/ml,− (− (T/C = 50))
same,Test/Control (%),LXF H460; 7.5 μg/ml,2%
same,Test/Control activity class,LXF H460; 7.5 μg/ml,+++ (+++ (T/C < 10))
same,Test/Control (%),LXF H460; 23. μg/ml,1%
same,Test/Control activity class,LXF H460; 23. μg/ml,+++ (+++ (T/C < 10))
same,Test/Control (%),LXF H460; 75. μg/ml,1%
same,Test/Control activity class,LXF H460; 75. μg/ml,+++ (+++ (T/C < 10))
same,Test/Control (%),LXF H460; .75 μg/ml,101%
same,Test/Control activity class,LXF H460; .75 μg/ml,− (− (T/C = 50))
same,Test/Control (%),CXF HCT116; 2.3 μg/ml,93%
same,Test/Control activity class,CXF HCT116; 2.3 μg/ml,− (− (T/C = 50))
same,Test/Control (%),CXF HCT116; 7.5 μg/ml,4%
same,Test/Control activity class,CXF HCT116; 7.5 μg/ml,+++ (+++ (T/C < 10))
same,Test/Control (%),CXF HCT116; 23. μg/ml,2%
same,Test/Control activity class,CXF HCT116; 23. μg/ml,+++ (+++ (T/C < 10))
same,Test/Control (%),CXF HCT116; 75. μg/ml,1%
same,Test/Control activity class,CXF HCT116; 75. μg/ml,+++ (+++ (T/C < 10))
same,Test/Control (%),CXF HCT116; .75 μg/ml,99%
same,Test/Control activity class,CXF HCT116; .75 μg/ml,− (− (T/C = 50))
same,Test/Control (%),MEXF 394NL; 2.3 μg/ml,59%
same,Test/Control activity class,MEXF 394NL; 2.3 μg/ml,− (− (T/C = 50))
same,Test/Control (%),MEXF 394NL; 7.5 μg/ml,3%
same,Test/Control activity class,MEXF 394NL; 7.5 μg/ml,+++ (+++ (T/C < 10))
same,Test/Control (%),MEXF 394NL; 23. μg/ml,2%
same,Test/Control activity class,MEXF 394NL; 23. μg/ml,+++ (+++ (T/C < 10))
same,Test/Control (%),MEXF 394NL; 75. μg/ml,2%
same,Test/Control activity class,MEXF 394NL; 75. μg/ml,+++ (+++ (T/C < 10))
same,Test/Control (%),MEXF 394NL; .75 μg/ml,99%
same,Test/Control activity class,MEXF 394NL; .75 μg/ml,− (− (T/C = 50))
same,IC50,"[6]; HT-29, read-out: IC50, viability",12.7 µM
same,viability at 30 µM,"[6]; HT-29, read-out: cell viability",30.9%
same,Test/Control (%),CNXF SF268; 2.3 μg/ml,70%
same,Test/Control activity class,CNXF SF268; 2.3 μg/ml,− (− (T/C = 50))
same,Test/Control (%),CNXF SF268; 7.5 μg/ml,5%
same,Test/Control activity class,CNXF SF268; 7.5 μg/ml,+++ (+++ (T/C < 10))
same,Test/Control (%),CNXF SF268; 23. μg/ml,4%
same,Test/Control activity class,CNXF SF268; 23. μg/ml,+++ (+++ (T/C < 10))
same,Test/Control (%),CNXF SF268; 75. μg/ml,3%
same,Test/Control activity class,CNXF SF268; 75. μg/ml,+++ (+++ (T/C < 10))
same,Test/Control (%),CNXF SF268; .75 μg/ml,91%
same,Test/Control activity class,CNXF SF268; .75 μg/ml,− (− (T/C = 50))
same,Test/Control (%),LXF 529L; 2.3 μg/ml,97%
same,Test/Control activity class,LXF 529L; 2.3 μg/ml,− (− (T/C = 50))
same,Test/Control (%),LXF 529L; 7.5 μg/ml,17%
same,Test/Control activity class,LXF 529L; 7.5 μg/ml,++ (++ (10 <= T/C < 30))
same,Test/Control (%),LXF 529L; 23. μg/ml,3%
same,Test/Control activity class,LXF 529L; 23. μg/ml,+++ (+++ (T/C < 10))
same,Test/Control (%),LXF 529L; 75. μg/ml,5%
same,Test/Control activity class,LXF 529L; 75. μg/ml,+++ (+++ (T/C < 10))
same,Test/Control (%),LXF 529L; .75 μg/ml,93%
same,Test/Control activity class,LXF 529L; .75 μg/ml,− (− (T/C = 50))
